Experimental data published in patent EP1044000B1, “COMBINATION THERAPY FOR THE TREATMENT OF AIDS” (MERCK & CO., INC., priority 1997, dated 1999).

Target: CYPIIIA4 (Homo sapiens, UniProt P08684)
Test: in vitro inhibition of CYPIIIA4
Format: in vitro ADME

Sequence of CYPIIIA4 (P08684 whole entry): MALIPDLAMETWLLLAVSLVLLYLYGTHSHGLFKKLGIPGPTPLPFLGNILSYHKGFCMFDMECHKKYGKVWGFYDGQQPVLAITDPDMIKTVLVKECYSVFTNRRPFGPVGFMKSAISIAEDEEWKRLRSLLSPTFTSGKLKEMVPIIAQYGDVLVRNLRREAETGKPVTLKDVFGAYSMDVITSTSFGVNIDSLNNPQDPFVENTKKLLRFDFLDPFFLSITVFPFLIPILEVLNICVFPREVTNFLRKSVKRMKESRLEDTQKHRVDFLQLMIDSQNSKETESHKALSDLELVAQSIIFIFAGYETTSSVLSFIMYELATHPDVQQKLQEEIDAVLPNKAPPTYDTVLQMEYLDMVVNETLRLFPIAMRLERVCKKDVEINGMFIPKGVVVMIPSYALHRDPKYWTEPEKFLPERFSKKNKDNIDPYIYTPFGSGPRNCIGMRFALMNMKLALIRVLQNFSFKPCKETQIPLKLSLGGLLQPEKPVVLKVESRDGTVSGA

## CC(C)(C)NC(=O)[C@@H]1CN(Cc2cc3ccccc3o2)CCN1C[C@@H](O)C[C@@H](Cc1ccccc1)C(=O)N[C@H]1c2ccccc2C[C@H]1O [Compound A, N-(2(R)-hydroxy-1(S)-indanyl)-2(R)-phenylmethyl-4-(S)-hydroxy-5-(1-(4-(2-benzo[b]furanylmethyl)-2(S)-N'-(t-butylcarboxamido)-piperazinyl))-pentaneamide]
  IC50: 30 µM
